Measured values reported in US7094760B2, “Peptides for treatment of inflammation and shock” (Salpep Biotechnology, Inc., priority 1996, dated 2006).

Key:
[1] = tested on: neutrophils from carrageenin-soaked sponges; test: superoxide production by neutrophils from carrageenin-soaked sponges of treated rats; format: in vivo, rat; settings: intravenous SGP-T 4 hr. before implantation of the sponge
Description: (§1) Under halothane anaesthesia the sponge was removed from its subcutaneous site and the fluid was squeezed from it into a test tube. Following centrifugation at 2,000 g for 10 min, the exudate was decanted and the remaining cells were suspended in 4 ml of 0.9% saline, and their number determined using a Coulter Counter. One ml of the remaining cell suspension was extracted for use in the superoxide assay.
Neutrophils (10^6) were suspended in PBS buffer of the following composition: NaCl 137 mM, KCl 2.7 mM, Na2HPO4, 8.1 mM, KH2PO4 1.47 mM, CaCl2 1.19 mM, MgCl2 0.54 mM, glucose 7.5 mM and cytochrome C 1.5 mM (Sigma Chemical Co. St. Louis, […].) incubated at 37 C. Each sample was read along with a reference sample containing 1440 units of superoxide dismutase (Sigma) in a spectrophotometer (Hitachi, U200 spectrophotometer). The rate of superoxide production in response to 10^−7M phorbol myristate acetate (PMA) or 10^−5 M N-formyl-methionyl-leucyl-phenylalanine (fMLP) was then inferred from the slope. […]
(§2) Intravenous injections of SGP-T inhibited neutrophil influx into a carrageenin-soaked sponge in a dose-dependent manner (FIG. 4). When the ability of neutrophils obtained from the carrageenin-soaked sponges to generate superoxide anion was evaluated, those obtained from saline-treated rats were totally refractory to f MLP and phorbol myristate acetate (PMA).

[2] = tested on: neutrophil influx into carrageenin-soaked sponge in rats; test: neutrophil migration into carrageenin-soaked sponge; format: in vivo, rat
Description: The subcutaneous implantation of a carrageenin-soaked sponge in rats is a model used to evaluate agents that modulate neutrophil chemotaxis, as carrageein is a potent chemotactic agent and the sponge serves as a collecting reservoir.
as §1, §2

[3] = tested on: jejunal segments from ovalbumin-sensitized rats; test: antigen-induced jejunal segment contraction, URE/OA ratio, Example 7; set-up: species or system rat
Description: Animals and Tissue Preparation: Male Sprague-Dawley rats were sensitized to egg albumin (ovalbumin, OA) with 50 ng of Pertussis bordetella toxin as an adjuvant. Four to six weeks after sensitization, the rats were anaethetised with sodium pentobarbital and the jejunum was removed. Two cm sections of the jejunum were mounted in tissue baths under 0.75 g of isometric tension, and the tissues were allowed to equilibrate for 20 min prior to beginning the experiment.
10 μg of SGP-T or one of its analogues or fragments was added to a bath, while control tissues received the saline vehicle. Following a 10 min incubation, 100 ng of OA prepared in 0.9% saline was added. After the tissue had reached a maximal contractile response, the tissues were washed extensively to remove OA and peptide and, after the tissues had established baseline tension, 20 μg of urecholine (URE; a cholinergic-muscarinic receptor agonist) was added to determine the maximal contractile response of the tissue. The tissues were then removed from the bath, cleared of all underlying mucosa and the weight of the remaining muscle was determined.
Data Analysis: The tension (measured in grams) per gram tissue weight generated by each tissue in response to OA and URE was calculated. To normalize for differences in the ability of each tissue segment to contract in response to the muscle stimulants, the contractile response to […]. Thus, a measure of the antigen-induced contraction was expressed as the URE/OA ratio.
The data was analyzed using the one-way analysis of variance (ANOVA) and differences between groups was determined using the Student t-test for unpaired samples. The results are shown in FIGS. 7 and 8 and Tables 3 and 4.

[4] = tested on: isolated jejunal segments from egg albumin-sensitised rats; test: antigen-induced contraction of isolated jejunal segments, Examples 3 and 6; set-up: species or system rat
Description: SGP-T, at doses as low as 6.8×10^−7M, reduced antigen induced contractions of these isolated intestinal tissues by 60% (data not shown).
Analogues and fragments of SGP-T were tested for their ability to inhibit antigen (egg albumin)-induced intestinal contractions, using isolated jejunal segments from egg albumin-sensitised rats, as described in Example 3.

[5] = tested on: LPS (Salmonella typhosa)-induced hypotension in unoperated rats; test: endotoxin (LPS)-induced hypotension, unoperated rats; format: in vivo, rat
Description: (§3) The animal model of endotoxic shock used involves intravenous injection of endotoxin (3.5 mg/kg of lipopolysaccharide (LPS) from Salmonella typhosa) into pentobarbital-anaesthetized Sprague-Dawley rats, to produce a fall in mean arterial blood pressure within 3 to 5 minutes. The endotoxin was injected slowly over 1 min. via the jugular vein, and mean arterial blood pressure in mm mercury (MABP) was monitored continuously for 60 min, with the average blood pressure being calculated at 15, 30, 45 and 60 min. Studies were performed on unoperated rats and rats with their submandibular glands removed (sialadenectomized).
(§4) The results shown in Table 1 are the averages of three different experiments using the protocol defined above. The data shown represent the average decrease in MABP (dec MABP) and the % Decrease in MABP over the 60 minutes following LPS administration. SGP-S (100μg/kg) and SGP-T (100 μg/kg) were administered 90 min. before LPS. […] Neither SGP-T nor SGP-S, when given prior to the LPS challenge, had appreciable effects on MABP.
Overall, SGP-T reduced by 60% the decrease and the percent decrease in MABP induced by endotoxin, relative to pre-LPS values. SGP-S, on the other hand, had no effect on the shock induced by endotoxin in unoperated rats.
(§5) The dose-response relationship of the inhibitory effect of SGP-T and SGP-S on endotoxin-induced hypotension was also examined and the results are shown in FIG. 1.

[6] = tested on: Sprague-Dawley rats sensitized with Nippostrongylys brasiliensis; test: antigen-induced anaphylactic hypotension, Nippostrongylus brasiliensis-sensitized rats; format: in vivo, rat; settings: given 10 minutes prior to worm antigen (100 worm equivalents)
Description: The effect of SGP-T on antigen-induced anaphylactic hypotension was examined in Sprague-Dawley rats sensitized 5 weeks previously with the nematode parasite Nippostrongylys brasiliensis. Under pentobarbital anesthesia, worm antigen (100 worm equivalents) was injected and arterial blood pressure was followed for 1 hour.

[7] = tested on: LPS (Salmonella typhosa)-induced hypotension in sialadenectomized rats; test: endotoxin (LPS)-induced hypotension, sialadenectomized rats; format: in vivo, rat
Description: as §3, §4, §5

[8] = tested on: rats sensitized to hen egg albumin; test: intestinal anaphylaxis (diarrhoea, disrupted MMCs), egg albumin-sensitized rats, Example 3; format: in vivo, rat; settings: intravenously
Description: SGP-T was also effective in preventing intestinal anaphylaxis.

[9] = peptide 100 μg/kg 90 min before LPS 3.5 mg/kg iv

NH2-Thr-Asp-Ile-Phe-Glu-Gly-Gly-COOH (H-TDIFEGG-OH) [SGP-T, submandibular gland peptide T, TDIFEGG]
superoxide generation in response to fMLP and PMA by sponge neutrophils [1]: able to generate substantial amounts of superoxide | neutrophil influx into a carrageenin-soaked sponge ([2]; intravenous injections): inhibited | inhibition of neutrophil migration ([2]; rat, in vivo): approximately 50% | reduction of the anaphylactic reaction ([3]; 10 μg of peptide): more than 50% | URE/OA ([3]; Table 4, 10 μg peptide, 100 ng OA, 20 μg urecholine, saline 5.7 ± 1.0): 13.9 ± 5.6 | Biological Activity = inhibition of antigen-induced jejunal contraction by test peptide [4]: +++ (+++ = highest inhibition (~60%)) | reduction of antigen induced contractions of isolated intestinal tissues ([4]; doses as low as 6.8×10^−7M): 60% | effect on drop in MABP / shock induced by endotoxin [5]: reduced the drop in MABP | optimal dose for reducing LPS-induced hypotension [5]: higher than in operated animals | % Dec = percent decrease in MABP relative to MABPbef [5, 9]: −11.6% | MABPaft = average MABP for 60 mins after LPS injection [5, 9]: 99.6 ± 3.8 mm Hg | dec MABP = decrease in MABP after LPS relative to MABPbef [5, 9]: −13.6 ± 2.9 mm Hg | reduction of the decrease and the percent decrease in MABP induced by endotoxin ([5]; relative to pre-LPS values): 60% | protection against anaphylactic hypotension [6]: dose-dependently protected | prevention of shock ([7]; doses higher than 10 μg/kg): less effective | LPS-provoked drop in blood pressure ([7]; doses of 1, 3.5 and 10 μg/kg): significantly prevented | decrease in blood pressure induced by LPS, dose-response ([7]; intravenously 1.5 hours before LPS): dose-dependently inhibited | % Dec = percent decrease in MABP relative to MABPbef [7, 9]: −36.3 ± 3.3% | MABPaft = average MABP for 60 mins after LPS injection [7, 9]: 77.2 ± 3.9 mm Hg | dec MABP = decrease in MABP after LPS relative to MABPbef [7, 9]: −46.1 ± 4.9 mm Hg | manifestation of anaphylaxis ([8]; 100 μg/kg): totally prevented | anaphylactic reactions (diarrhoea, disruption of MMCs) ([8]; doses as low as 10 μg/kg): significantly attenuated
